Reference: publication PMC7255801, “Disease-associated mutations in the human TRPM3 render the channel overactive via two distinct mechanisms” (eLife, 2020)

Biological target: T1, wild-type hTRPM3α2 (Homo sapiens, UniProt Q9HCF6)
T1 construct: host or cells: HEK293
Test: Intracellular Ca2+ assay (GCaMP6f) in 96-well plates, HEK293 cells, wild type channel
Format: cell-based
Method: Intracellular Ca^2+ measurements were performed using a Flexstation-3 96‐well plate reader with rapid well injection (Molecular Devices) as described earlier ([Hughes et al., 2019]) with some modifications. Briefly Human Embryonic Kidney 293 (HEK293) cells were purchased from American Type Culture Collection (ATCC), Manassas, VA, (catalogue number CRL-1573), RRID:CVCL_0045; cell identity was verified by STR analysis by ATCC. HEK293 cells were cultured in MEM supplemented with 10% FBS and 100 IU/ml penicillin plus 100 µg/ml streptomycin in 5% CO2 at 37°C. Additional cell authentication was not performed, but passage number of the cells was monitored, and cells were used up to passage number 25–30 from purchase, when a new batch of cells was thawed with low passage number; cells were tested for the lack of mycoplasma infection. HEK293 cells were transfected with hTRPM3α2-GFP, or its mutants (200 ng) and GCaMP6 (1 μg) using the Effectene reagent (Qiagen). […] GCaMP6 signal was measured at excitation wavelengths 485 nm and fluorescence emission was detected at 525 nm. Sampling interval was 0.86 s and four parallel reads were performed for each condition. […] For measurements at 37°C the MEM medium used to culture the cells was replaced with the measurement solution preheated to 37°C, and the plate was placed in the plate reader warmed to 37°C using its built-in temperature controller.

T1 sequence (Q9HCF6 1-1709 isoform Q9HCF6-5): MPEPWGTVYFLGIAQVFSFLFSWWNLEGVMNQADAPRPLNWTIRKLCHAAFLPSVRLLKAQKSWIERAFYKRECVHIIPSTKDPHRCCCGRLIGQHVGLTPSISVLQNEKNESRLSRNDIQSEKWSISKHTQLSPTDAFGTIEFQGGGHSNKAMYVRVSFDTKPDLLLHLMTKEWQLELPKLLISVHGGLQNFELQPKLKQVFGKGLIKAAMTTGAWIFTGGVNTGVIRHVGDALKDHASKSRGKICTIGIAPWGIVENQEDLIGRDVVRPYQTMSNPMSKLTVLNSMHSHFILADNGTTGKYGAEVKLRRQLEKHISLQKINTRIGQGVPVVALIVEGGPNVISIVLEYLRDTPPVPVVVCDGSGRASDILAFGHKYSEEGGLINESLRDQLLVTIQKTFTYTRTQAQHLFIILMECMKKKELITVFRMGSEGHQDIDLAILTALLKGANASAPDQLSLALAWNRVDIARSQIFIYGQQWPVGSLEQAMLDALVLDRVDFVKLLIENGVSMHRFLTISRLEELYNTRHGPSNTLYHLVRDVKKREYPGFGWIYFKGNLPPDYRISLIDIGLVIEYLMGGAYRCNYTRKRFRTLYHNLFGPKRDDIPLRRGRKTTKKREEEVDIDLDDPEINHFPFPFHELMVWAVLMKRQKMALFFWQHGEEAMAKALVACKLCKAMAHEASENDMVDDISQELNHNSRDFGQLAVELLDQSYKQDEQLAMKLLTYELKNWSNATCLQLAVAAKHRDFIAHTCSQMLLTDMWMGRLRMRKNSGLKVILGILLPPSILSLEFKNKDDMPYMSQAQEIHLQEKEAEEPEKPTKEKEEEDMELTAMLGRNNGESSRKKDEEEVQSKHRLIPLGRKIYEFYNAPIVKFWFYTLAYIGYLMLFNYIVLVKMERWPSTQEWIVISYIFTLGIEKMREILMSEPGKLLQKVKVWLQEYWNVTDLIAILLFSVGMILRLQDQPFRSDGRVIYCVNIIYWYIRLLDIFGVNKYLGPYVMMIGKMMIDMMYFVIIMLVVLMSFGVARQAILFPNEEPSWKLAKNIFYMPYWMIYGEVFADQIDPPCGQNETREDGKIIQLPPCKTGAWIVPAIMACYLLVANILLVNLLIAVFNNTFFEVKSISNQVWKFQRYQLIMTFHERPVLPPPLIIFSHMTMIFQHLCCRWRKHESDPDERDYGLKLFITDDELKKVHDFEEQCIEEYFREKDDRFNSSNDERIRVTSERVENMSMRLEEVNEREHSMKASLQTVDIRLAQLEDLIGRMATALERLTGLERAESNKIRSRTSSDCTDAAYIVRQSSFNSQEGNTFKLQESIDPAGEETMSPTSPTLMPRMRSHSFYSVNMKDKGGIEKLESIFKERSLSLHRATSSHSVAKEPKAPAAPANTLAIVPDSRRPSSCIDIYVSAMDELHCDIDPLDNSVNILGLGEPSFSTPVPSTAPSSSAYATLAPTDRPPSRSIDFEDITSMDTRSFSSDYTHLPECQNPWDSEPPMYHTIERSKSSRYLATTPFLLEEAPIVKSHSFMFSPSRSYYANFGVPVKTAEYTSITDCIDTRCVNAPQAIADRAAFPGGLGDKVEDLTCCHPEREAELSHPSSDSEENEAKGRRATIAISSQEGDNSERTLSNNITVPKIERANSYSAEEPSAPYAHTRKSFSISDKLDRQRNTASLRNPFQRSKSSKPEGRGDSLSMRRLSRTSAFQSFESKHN

- Effect on basal cytoplasmic Ca2+ levels (wild type TRPM3, room temperature (21°C)): no effect
- Effect on basal Ca2+ levels at 37°C (wild type channels, 50 μM, 37°C): reduced basal Ca^2+ levels
Structure (SMILES): CCC1(c2ccccc2)C(=O)NCNC1=O [primidone]
